Laboratory results from patent US8314142B2, “Dimers of artemisinin derivatives, preparation thereof and therapeutic use thereof” (Sanofi, priority 2006, dated 2012).

The molecules below were run on HCT116 cells (assay: Inhibition of cell proliferation of HCT116 cells (14C-thymidine incorporation, 96 hours)). Settings: Homo sapiens, HCT-116, 14C-thymidine incorporation after 96 hours.
Assay type: cell-based
Description: The products according to the invention have been the subject of pharmacological trials which make it possible to determine their antiproliferative activity. It was determined by measuring the inhibition of cell proliferation of HCT116 cells. The cells are inoculated in a cell culture medium at a concentration of 10 000 cells per well, in 0.17 ml of medium, and 20 μl of test product, at various concentrations, and 10 μl of Thymidine [methyl-14C] (100 μCi/ml—specific activity 47.90 mCi/mmol; NEN Technologies reference NEC568 batch 3550-001) are added, and then the cells are incubated at 37° C. and 5% CO2.
Medium used for the culture of HCT116 cells: DMEM medium 2 mM L-glutamine, 200 IU/ml penicillin, 200 μg/ml streptomycin and 10% (V/V) fetal calf serum (Life Technologies).
After 96 hours, the incorporation of ^14C-thymidine is counted in a liquid scintillation counter 1450 Microbeta Wallac Trilux. The results R are expressed in cpm (counts per minute) and converted to percentage of growth inhibition GI % by first subtracting the mean of the number of cpm of the wells without cells B and then by dividing by the number of cpm of the wells of the untreated cells C comprising 20 μl of medium for dilution of the product containing 1% of ethanol (GI %=(R−B)×100/C %).
The IC50 values are calculated with the aid of the equation 205 of the XLFit software (IDBS company, UK) by nonlinear regression analysis using the Marquardt algorithm (Donald W. MARQUARDT, J. Soc. industry appl., vol. 11, No. 2, June, 1963).

IC50	Structure (SMILES)
30 nM	C[C@@H]1CC[C@H]2[C@@H](C)[C@](OCCN(C)CCO[C@@]3(C(F)(F)F)O[C@@H]4O[C@@]5(C)CC[C@H]6[C@H](C)CC[C@@H]([C@H]3C)[C@@]46OO5)(C(F)(F)F)O[C@@H]3O[C@@]4(C)CC[C@@H]1[C@]32OO4 [EX8, 2-[[(3R,5aS,6R,8aS,9R,10R,12R,12aR)-decahydro-3,6,9-trimethyl-10-(trifluoromethyl)-3,12-epoxy-12H-pyrano[4,3-j]-1,2-benzodioxepin-10-yl]oxy]-N-[2-[[(3R,5aS,6R,8aS,9R,10R,12R,12aR)-decahydro-3,6,9-trimethyl-10-(trifluoromethyl)-3,12-epoxy-12H-pyrano[4,3-j]-1,2-benzodioxepin-10-yl]oxy]ethyl]-N-methylethanamine]
23 nM	C[C@@H]1CC[C@H]2[C@@H](C)[C@](OCC[S+]([O-])CCO[C@@]3(C(F)(F)F)O[C@@H]4O[C@]5(C)CC[C@H]6[C@H](C)CC[C@@H]([C@H]3C)[C@@]46OO5)(C(F)(F)F)O[C@@H]3O[C@@]4(C)CC[C@@H]1[C@]32OO4 [EX2]
47 nM	C[C@@H]1CC[C@H]2[C@@H](C)[C@](OCCSCCO[C@@]3(C(F)(F)F)O[C@@H]4O[C@]5(C)CC[C@H]6[C@H](C)CC[C@@H]([C@H]3C)[C@@]46OO5)(C(F)(F)F)O[C@@H]3O[C@@]4(C)CC[C@@H]1[C@]32OO4 [EX1]
21 nM	C[C@@H]1CC[C@H]2[C@@H](C)[C@](OCCS(=O)(=O)CCO[C@@]3(C(F)(F)F)O[C@@H]4O[C@]5(C)CC[C@H]6[C@H](C)CC[C@@H]([C@H]3C)[C@@]46OO5)(C(F)(F)F)O[C@@H]3O[C@@]4(C)CC[C@@H]1[C@]32OO4 [EX3, (3S,5aS,6R,8aS,9R,10R,12R,12aR,3′S,5′aS,6′R,8′aS,-9′R,10′R,12′R,12′aR)-10,10′-[sulfonylbis(2,1-ethanediyloxy)]bis[decahydro-3,6,9-trimethyl-10-tri-fluoromethyl)-3,12-epoxy-12H-pyrano[4,3-j]-1,2-benzodioxepine]
